Measured values reported in US20050112573A1, “Method of detecting toxic substance” (priority 2001, published 2005).

System: yeast genes (level of expressed mRNA)
Test: DNA chip analysis of expressed mRNA of yeast genes after 2 h culture with a toxic chemical substance
Type: cell-based, Saccharomyces cerevisiae S288C
Method in brief: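 S. cerevisiae S288C grown at 25° C in YPD; toxicant added at log phase at growth-inhibitory, non-lethal levels for 2 h, untreated cells as control. Poly(A) mRNA reverse-transcribed with Cy3/Cy5-dUTP, hybridized to whole-genome chip at 65° C >12 h; value is fluorescence ratio versus untreated.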

CdCl2 [(2)]
The level of expressed mRNA in the presence of chemical substance/ (yeast gene YFL010C, ratio to control without chemical substance, 2 h culture): 4.8
The level of expressed mRNA in the presence of chemical substance/ (yeast gene YFL024C, ratio to control without chemical substance, 2 h culture): 1.1
The level of expressed mRNA in the presence of chemical substance/The level of expressed mRNA in the absence of chemical substance (yeast gene YFL028C): 1.1
The level of expressed mRNA in the presence of chemical substance/ (yeast gene YFL032W, ratio to control without chemical substance, 2 h culture): 1.5
The level of expressed mRNA in the presence of chemical substance/The level of expressed mRNA in the absence of chemical substance (yeast gene YFL043C): 1.2
The level of expressed mRNA in the presence of chemical substance/in the absence of chemical substance (yeast gene YGL035C): 1.4
The level of expressed mRNA in the presence of chemical substance/ (yeast gene YGL037C, ratio to control without chemical substance, 2 h culture): 2.7
The level of expressed mRNA in the presence of chemical substance/ (yeast gene YGL047W, ratio to control without chemical substance, 2 h culture): 1.9
The level of expressed mRNA in the presence of chemical substance/ (yeast gene YGL053W, ratio to control without chemical substance, 2 h culture): 1.5
The level of expressed mRNA in the presence of chemical substance/ (yeast gene YGL121C, ratio to control without chemical substance, 2 h culture): 5.0
The level of expressed mRNA in the presence of chemical substance/The level of expressed mRNA in the absence of chemical substance (yeast gene YGL158W): 2.8
The level of expressed mRNA in the presence of chemical substance/ (yeast gene YGL199C, ratio to control without chemical substance, 2 h culture): 1.7
The level of expressed mRNA in the presence of chemical substance/The level of expressed mRNA in the absence of chemical substance (yeast gene YGL229C): 0.7
The level of expressed mRNA in the presence of chemical substance/ (yeast gene YGR101W, ratio to control without chemical substance, 2 h culture): 1.3
The level of expressed mRNA in the presence of chemical substance/ (yeast gene YGR110W, ratio to control without chemical substance, 2 h culture): 3.1
The level of expressed mRNA in the presence of chemical substance/ (yeast gene YGR130C, ratio to control without chemical substance, 2 h culture): 0.7
The level of expressed mRNA in the presence of chemical substance/The level of expressed mRNA in the absence of chemical substance (yeast gene YGR136W): 1.2
The level of expressed mRNA in the presence of chemical substance/ (yeast gene YGR154C, ratio to control without chemical substance, 2 h culture): 2.9
The level of expressed mRNA in the presence of chemical substance/The level of expressed mRNA in the absence of chemical substance (yeast gene YGR189C): 0.9
The level of expressed mRNA in the presence of chemical substance/The level of expressed mRNA in the absence of chemical substance (yeast gene YGR213C): 2.9
The level of expressed mRNA in the presence of chemical substance/ (yeast gene YGR221C, ratio to control without chemical substance, 2 h culture): 2.2
The level of expressed mRNA in the presence of chemical substance/The level of expressed mRNA in the absence of chemical substance (yeast gene YGR257C): 0.8
The level of expressed mRNA in the presence of chemical substance/in the absence of chemical substance (yeast gene YGR287C): 1.0
The level of expressed mRNA in the presence of chemical substance/The level of expressed mRNA in the absence of chemical substance (yeast gene YHR004C): 1.1
The level of expressed mRNA in the presence of chemical substance/The level of expressed mRNA in the absence of chemical substance (yeast gene YHR071W): 1.1
The level of expressed mRNA in the presence of chemical substance/ (yeast gene YHR138C, ratio to control without chemical substance, 2 h culture): 1.8
The level of expressed mRNA in the presence of chemical substance/The level of expressed mRNA in the absence of chemical substance (yeast gene YHR139C): 4.6
The level of expressed mRNA in the presence of chemical substance/The level of expressed mRNA in the absence of chemical substance (yeast gene YHR142W): 0.8
The level of expressed mRNA in the presence of chemical substance/ (yeast gene YHR199C, ratio to control without chemical substance, 2 h culture): 2.0
The level of expressed mRNA in the presence of chemical substance/ (yeast gene YIL023C, ratio to control without chemical): 1.2
The level of expressed mRNA in the presence of chemical substance/ (yeast gene YIL041W, ratio to control without chemical substance, 2 h culture): 1.2
The level of expressed mRNA in the presence of chemical substance/ (yeast gene YIL087C, ratio to control without chemical substance, 2 h culture): 1.9
The level of expressed mRNA in the presence of chemical substance/The level of expressed mRNA in the absence of chemical substance (yeast gene YIL123W): 0.5
The level of expressed mRNA in the presence of chemical substance/The level of expressed mRNA in the absence of chemical substance (yeast gene YIL140W): 1.0
The level of expressed mRNA in the presence of chemical substance/ (yeast gene YJL057C, ratio to control without chemical substance, 2 h culture): 1.2
The level of expressed mRNA in the presence of chemical substance/ (yeast gene YJL066C, ratio to control without chemical substance, 2 h culture): 1.2
The level of expressed mRNA in the presence of chemical substance/in the absence of chemical substance (yeast gene YJL070C): 0.9
The level of expressed mRNA in the presence of chemical substance/The level of expressed mRNA in the absence of chemical substance (yeast gene YJL073W): 0.8
The level of expressed mRNA in the presence of chemical substance/ (yeast gene YJL082W, ratio to control without chemical substance, 2 h culture): 0.8
The level of expressed mRNA in the presence of chemical substance/The level of expressed mRNA in the absence of chemical substance (yeast gene YJL089W): 1.5
The level of expressed mRNA in the presence of chemical substance/The level of expressed mRNA in the absence of chemical substance (yeast gene YJL116C): 1.8
The level of expressed mRNA in the presence of chemical substance/ (yeast gene YJL151C, ratio to control without chemical substance, 2 h culture): 2.4
The level of expressed mRNA in the presence of chemical substance/ (yeast gene YJL152W, ratio to control without chemical substance, 2 h culture): 1.5
The level of expressed mRNA in the presence of chemical substance/ (yeast gene YJL161W, ratio to control without chemical substance, 2 h culture): 2.2
The level of expressed mRNA in the presence of chemical substance/in the absence of chemical substance (yeast gene YJL167W): 1.4
The level of expressed mRNA in the presence of chemical substance/ (yeast gene YJL171C, ratio to control without chemical substance, 2 h culture): 0.7
The level of expressed mRNA in the presence of chemical substance/in the absence of chemical substance (yeast gene YJL216C): 4.7
The level of expressed mRNA in the presence of chemical substance/The level of expressed mRNA in the absence of chemical substance (yeast gene YJR004C): 0.8
The level of expressed mRNA in the presence of chemical substance/ (yeast gene YJR008W, ratio to control without chemical substance, 2 h culture): 1.5
The level of expressed mRNA in the presence of chemical substance/ (yeast gene YJR054W, ratio to control without chemical): 0.9
The level of expressed mRNA in the presence of chemical substance/The level of expressed mRNA in the absence of chemical substance (yeast gene YJR086W): 1.1
The level of expressed mRNA in the presence of chemical substance/The level of expressed mRNA in the absence of chemical substance (yeast gene YKL008C): 0.6
The level of expressed mRNA in the presence of chemical substance/The level of expressed mRNA in the absence of chemical substance (yeast gene YKL013C): 0.9
The level of expressed mRNA in the presence of chemical substance/The level of expressed mRNA in the absence of chemical substance (yeast gene YKL039W): 1.1
The level of expressed mRNA in the presence of chemical substance/The level of expressed mRNA in the absence of chemical substance (yeast gene YKL041W): 0.8
The level of expressed mRNA in the presence of chemical substance/ (yeast gene YKL071W, ratio to control without chemical substance, 2 h culture): 3.8
